# Source: ChEMBL document CHEMBL3797052 (Eur J Med Chem, 2016)
# Key:
# CYP2D6 = CYP2D6 (Homo sapiens, UniProt P10635); test: Inhibition of recombinant human CYP2D6 assessed as remaining enzyme activity using CYP2D6 blue as substrate at 10 uM after 5 mins in presence of NADP by fluorescence plate reader analysis; assay type: ADME; conditions: recombinant human CYP2D6, probe CYP2D6 blue, read-out: Activity
# [1] = Antiproliferative activity against human SKOV3 cells assessed as growth inhibition after 48 hrs by sulforhodamine B assay; assay type: functional; conditions: SK-OV-3, 48 h; for CC50: read-out: LC50 (the source's name)
# [2] = Antiproliferative activity against human HL-60(TB) cells assessed as cell growth at 10^-7 M after 48 hrs by sulforhodamine B assay; assay type: functional; conditions: HL-60, 48 h, read-out: Activity
# K562 = test: Antiproliferative activity against human K562 cells assessed as cell growth at 10^-7 M after 48 hrs by sulforhodamine B assay; assay type: functional; conditions: K562, 48 h, read-out: Activity
# [3] = Antiproliferative activity against human SF539 cells assessed as cell growth at 10^-7 M after 48 hrs by sulforhodamine B assay; assay type: functional; conditions: SF-539, 48 h, read-out: Activity
# [4] = Antiproliferative activity against human IGROV1 cells assessed as cell growth at 10^-7 M after 48 hrs by sulforhodamine B assay; assay type: functional; conditions: IGROV-1, 48 h, read-out: Activity
# [5] = Antiproliferative activity against human OVCAR3 cells assessed as cell growth at 10^-7 M after 48 hrs by sulforhodamine B assay; assay type: functional; conditions: OVCAR-3, 48 h, read-out: Activity
# SN12C [6] = test: Antiproliferative activity against human SN12C cells assessed as cell growth at 10^-7 M after 48 hrs by sulforhodamine B assay; assay type: functional; conditions: read-out: Activity
# [7] = Antiproliferative activity against human SNB19 cells assessed as growth inhibition after 48 hrs by sulforhodamine B assay; assay type: functional; conditions: SNB-19, 48 h
# [8] = Antiproliferative activity against human HL-60(TB) cells assessed as growth inhibition after 48 hrs by sulforhodamine B assay; assay type: functional; conditions: HL-60, 48 h; for CC50: read-out: LC50 (the source's name)
# MDA-MB-231 = test: Antiproliferative activity against human MDA-MB-231 cells assessed as growth inhibition after 48 hrs by sulforhodamine B assay; assay type: functional; conditions: MDA-MB-231, 48 h; for CC50: read-out: LC50 (the source's name)
# [9] = test system: Serine/threonine-protein kinase B-raf (Homo sapiens), P15056 [V600E]; test: Inhibition of BRAF V600E mutant (unknown origin) at 10 uM measured after 40 mins by scintillation counting
# CYP3A4 = CYP3A4 (Homo sapiens, UniProt P08684); test: Inhibition of recombinant human CYP3A4 assessed as remaining enzyme activity using CYP3A4 blue as substrate at 10 uM after 5 mins in presence of NADP by fluorescence plate reader analysis; assay type: ADME; conditions: recombinant human CYP3A4, probe CYP3A4 blue, read-out: Activity
# A549 [10] = test: Antiproliferative activity against human A549/ATCC cells assessed as cell growth at 10^-8 M after 48 hrs by sulforhodamine B assay; assay type: functional; conditions: A549, 48 h, read-out: Activity
# NCI-H226 = test: Antiproliferative activity against human NCI-H226 cells assessed as cell growth at 10^-8 M after 48 hrs by sulforhodamine B assay; assay type: functional; conditions: NCI-H226, 48 h, read-out: Activity
# [11] = Antiproliferative activity against human SF268 cells assessed as cell growth at 10^-8 M after 48 hrs by sulforhodamine B assay; assay type: functional; conditions: SF-268, 48 h, read-out: Activity
# [12] = Antiproliferative activity against human SF295 cells assessed as cell growth at 10^-8 M after 48 hrs by sulforhodamine B assay; assay type: functional; conditions: SF-295, 48 h, read-out: Activity
# NCI-H460 = test: Antiproliferative activity against human NCI-H460 cells assessed as cell growth at 10^-6 M after 48 hrs by sulforhodamine B assay; assay type: functional; conditions: NCI-H460, 48 h, read-out: Activity
# [13] = Antiproliferative activity against human SW620 cells assessed as cell growth at 10^-6 M after 48 hrs by sulforhodamine B assay; assay type: functional; conditions: SW-620, 48 h, read-out: Activity
# [14] = Antiproliferative activity against human SF539 cells assessed as cell growth at 10^-6 M after 48 hrs by sulforhodamine B assay; assay type: functional; conditions: SF-539, 48 h, read-out: Activity
# A549 [15] = test: Antiproliferative activity against human A549/ATCC cells assessed as cell growth at 10^-4 M after 48 hrs by sulforhodamine B assay; assay type: functional; conditions: A549, 48 h, read-out: Activity
# NCI-H522 = test: Antiproliferative activity against human NCI-H522 cells assessed as cell growth at 10^-4 M after 48 hrs by sulforhodamine B assay; assay type: functional; conditions: NCI-H522, 48 h, read-out: Activity
# [16] = Antiproliferative activity against human COLO205 cells assessed as cell growth at 10^-4 M after 48 hrs by sulforhodamine B assay; assay type: functional; conditions: COLO 205, 48 h, read-out: Activity
# HT-29 = test: Antiproliferative activity against human HT-29 cells assessed as cell growth at 10^-4 M after 48 hrs by sulforhodamine B assay; assay type: functional; conditions: HT-29, 48 h, read-out: Activity
# [17] = Antiproliferative activity against human SW620 cells assessed as cell growth at 10^-4 M after 48 hrs by sulforhodamine B assay; assay type: functional; conditions: SW-620, 48 h, read-out: Activity
# MDA-MB-435 = test: Antiproliferative activity against human MDA-MB-435 cells assessed as cell growth at 10^-8 M after 48 hrs by sulforhodamine B assay; assay type: functional; conditions: MDA-MB-435, 48 h, read-out: Activity
# SK-MEL-2 = test: Antiproliferative activity against human SK-MEL-2 cells assessed as cell growth at 10^-8 M after 48 hrs by sulforhodamine B assay; assay type: functional; conditions: SK-MEL-2, 48 h, read-out: Activity
# [18] = Antiproliferative activity against human IGROV1 cells assessed as cell growth at 10^-8 M after 48 hrs by sulforhodamine B assay; assay type: functional; conditions: IGROV-1, 48 h, read-out: Activity
# [19] = Antiproliferative activity against human DU145 cells assessed as cell growth at 10^-8 M after 48 hrs by sulforhodamine B assay; assay type: functional; conditions: DU-145, 48 h, read-out: Activity
# SN12C [20] = test: Antiproliferative activity against human SN12C cells assessed as cell growth at 10^-6 M after 48 hrs by sulforhodamine B assay; assay type: functional; conditions: read-out: Activity
# [21] = Antiproliferative activity against human Hs 578T cells assessed as cell growth at 10^-6 M after 48 hrs by sulforhodamine B assay; assay type: functional; conditions: read-out: Activity
# [22] = Antiproliferative activity against human IGROV1 cells assessed as cell growth at 10^-4 M after 48 hrs by sulforhodamine B assay; assay type: functional; conditions: IGROV-1, 48 h, read-out: Activity
# [23] = Antiproliferative activity against human SKOV3 cells assessed as cell growth at 10^-4 M after 48 hrs by sulforhodamine B assay; assay type: functional; conditions: SK-OV-3, 48 h, read-out: Activity
# [24] = Antiproliferative activity against human RXF393 cells assessed as cell growth at 10^-4 M after 48 hrs by sulforhodamine B assay; assay type: functional; conditions: RXF 393, 48 h, read-out: Activity
# [25] = Antiproliferative activity against human Hs 578T cells assessed as cell growth at 10^-4 M after 48 hrs by sulforhodamine B assay; assay type: functional; conditions: read-out: Activity
# Chain of CYP2D6 (P10635 whole entry): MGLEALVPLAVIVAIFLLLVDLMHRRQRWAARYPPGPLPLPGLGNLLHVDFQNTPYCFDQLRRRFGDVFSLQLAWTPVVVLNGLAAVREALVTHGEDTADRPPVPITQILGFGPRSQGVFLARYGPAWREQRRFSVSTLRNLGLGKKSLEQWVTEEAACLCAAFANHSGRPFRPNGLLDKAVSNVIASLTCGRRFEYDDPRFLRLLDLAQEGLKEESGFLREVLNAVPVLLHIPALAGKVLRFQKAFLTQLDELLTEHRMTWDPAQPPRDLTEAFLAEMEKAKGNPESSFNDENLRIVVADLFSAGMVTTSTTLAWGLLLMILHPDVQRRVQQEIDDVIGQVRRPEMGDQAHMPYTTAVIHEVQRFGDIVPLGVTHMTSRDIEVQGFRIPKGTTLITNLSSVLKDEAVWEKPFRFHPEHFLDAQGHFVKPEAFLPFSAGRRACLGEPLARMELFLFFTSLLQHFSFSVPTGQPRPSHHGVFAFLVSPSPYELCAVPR
# Chain of CYP3A4 (P08684 whole entry): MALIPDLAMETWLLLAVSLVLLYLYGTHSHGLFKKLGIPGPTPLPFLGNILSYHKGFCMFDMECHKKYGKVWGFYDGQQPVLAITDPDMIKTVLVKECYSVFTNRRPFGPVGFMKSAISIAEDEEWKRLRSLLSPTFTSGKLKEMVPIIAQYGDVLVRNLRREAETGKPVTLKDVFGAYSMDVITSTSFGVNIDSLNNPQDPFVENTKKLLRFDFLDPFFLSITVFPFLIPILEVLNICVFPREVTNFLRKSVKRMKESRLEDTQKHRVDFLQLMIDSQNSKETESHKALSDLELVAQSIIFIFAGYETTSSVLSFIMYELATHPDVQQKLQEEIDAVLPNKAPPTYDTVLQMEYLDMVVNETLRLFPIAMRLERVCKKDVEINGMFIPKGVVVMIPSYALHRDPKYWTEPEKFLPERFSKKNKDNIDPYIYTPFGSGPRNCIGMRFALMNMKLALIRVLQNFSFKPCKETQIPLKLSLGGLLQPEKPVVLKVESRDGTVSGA
# Chain of Serine/threonine-protein kinase B-raf (Homo sapiens), P15056 [V600E] (P15056 whole entry V600E): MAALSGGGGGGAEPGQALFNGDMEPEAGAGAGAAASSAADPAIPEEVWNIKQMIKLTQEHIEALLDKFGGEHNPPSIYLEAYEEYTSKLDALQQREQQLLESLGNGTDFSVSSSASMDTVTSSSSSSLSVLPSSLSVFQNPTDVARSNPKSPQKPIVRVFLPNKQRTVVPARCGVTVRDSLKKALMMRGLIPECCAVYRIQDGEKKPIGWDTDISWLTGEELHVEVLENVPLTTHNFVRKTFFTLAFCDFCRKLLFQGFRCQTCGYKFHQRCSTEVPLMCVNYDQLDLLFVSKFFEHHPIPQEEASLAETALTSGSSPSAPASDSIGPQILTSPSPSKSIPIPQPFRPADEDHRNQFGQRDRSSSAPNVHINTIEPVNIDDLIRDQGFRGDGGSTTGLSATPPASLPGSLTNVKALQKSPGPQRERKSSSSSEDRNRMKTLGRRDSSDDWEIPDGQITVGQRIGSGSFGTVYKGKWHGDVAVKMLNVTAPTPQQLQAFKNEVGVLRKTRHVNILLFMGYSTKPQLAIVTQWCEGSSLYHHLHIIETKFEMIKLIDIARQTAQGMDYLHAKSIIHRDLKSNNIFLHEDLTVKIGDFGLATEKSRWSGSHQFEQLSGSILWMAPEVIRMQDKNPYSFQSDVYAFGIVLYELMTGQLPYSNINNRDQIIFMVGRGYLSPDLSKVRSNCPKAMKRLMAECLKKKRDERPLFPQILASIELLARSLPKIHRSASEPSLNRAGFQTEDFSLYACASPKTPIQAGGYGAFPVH
structure (smiles),measurement,setting,value
CNC(=O)c1cc(Oc2ccc3nc(NC(=O)Nc4ccc(Cl)c(C(F)(F)F)c4)sc3c2)ccn1,"activity at 5 min, 10 µM",CYP2D6,98.7%
same,GI50,[1],1890 nM
same,TGI,[1],4.21 µM
same,CC50,[1],9.39 µM
same,growth at 0.1 µM,[2],110%
same,growth at 0.1 µM,K562,104%
same,growth at 0.1 µM,[3],97%
same,growth at 0.1 µM,[4],97%
same,growth at 0.1 µM,[5],111%
same,growth at 0.1 µM,SN12C [6],93%
same,GI50,[7],2770 nM
same,LC50 (50% lethal concentration),[7],> 100 µM
same,TGI,[7],10.2 µM
same,GI50,[8],> 100 µM
same,TGI,[8],> 100 µM
same,CC50,[8],> 100 µM
same,GI50,MDA-MB-231,1430 nM
same,TGI,MDA-MB-231,4.29 µM
same,CC50,MDA-MB-231,59.2 µM
same,inhibition,[9],55.1%
same,"activity at 5 min, 10 µM",CYP3A4,105%
same,growth at 0.01 µM,A549 [10],104%
same,growth at 0.01 µM,NCI-H226,93%
same,growth at 0.01 µM,[11],107%
same,growth at 0.01 µM,[12],95%
same,growth at 1 µM,NCI-H460,86%
same,growth at 1 µM,[13],91%
same,growth at 1 µM,[14],87%
same,growth at 100 µM,A549 [15],9%
same,growth at 100 µM,NCI-H522,23%
same,growth at 100 µM,[16],53%
same,growth at 100 µM,HT-29,68%
same,growth at 100 µM,[17],42%
same,growth at 0.01 µM,MDA-MB-435,91%
same,growth at 0.01 µM,SK-MEL-2,103%
same,growth at 0.01 µM,[18],102%
same,growth at 0.01 µM,[19],109%
same,growth at 1 µM,SN12C [20],81%
same,growth at 1 µM,[21],65%
same,growth at 100 µM,[22],-35%
same,growth at 100 µM,[23],-68%
same,growth at 100 µM,[24],-78%
same,growth at 100 µM,[25],-12%
CNC(=O)c1cc(Oc2ccc3nc(NC(=O)Nc4ccc(Cl)c(Cl)c4)sc3c2)ccn1,"activity at 5 min, 10 µM",CYP2D6,96.4%
same,GI50,[1],2240 nM
same,TGI,[1],4.09 µM
same,CC50,[1],7.45 µM
same,growth at 0.1 µM,[2],102%
same,growth at 0.1 µM,K562,98%
same,growth at 0.1 µM,[3],100%
same,growth at 0.1 µM,[4],92%
same,growth at 0.1 µM,[5],102%
same,growth at 0.1 µM,SN12C [6],107%
same,GI50,[7],1990 nM
same,LC50 (50% lethal concentration),[7],7.95 µM
same,TGI,[7],3.98 µM
same,GI50,[8],> 100 µM
same,TGI,[8],> 100 µM
same,CC50,[8],> 100 µM
same,GI50,MDA-MB-231,2150 nM
same,TGI,MDA-MB-231,6.43 µM
same,CC50,MDA-MB-231,> 100 µM
same,inhibition,[9],67.6%
same,"activity at 5 min, 10 µM",CYP3A4,104%
same,growth at 0.01 µM,A549 [10],98%
same,growth at 0.01 µM,NCI-H226,104%
same,growth at 0.01 µM,[11],96%
same,growth at 0.01 µM,[12],86%
same,growth at 1 µM,NCI-H460,107%
same,growth at 1 µM,[13],128%
same,growth at 1 µM,[14],100%
same,growth at 100 µM,A549 [15],-41%
same,growth at 100 µM,NCI-H522,23%
same,growth at 100 µM,[16],26%
same,growth at 100 µM,HT-29,-49%
same,growth at 100 µM,[17],48%
same,growth at 0.01 µM,MDA-MB-435,89%
same,growth at 0.01 µM,SK-MEL-2,115%
same,growth at 0.01 µM,[18],99%
same,growth at 0.01 µM,[19],102%
same,growth at 1 µM,SN12C [20],102%
same,growth at 1 µM,[21],108%
same,growth at 100 µM,[22],-20%
same,growth at 100 µM,[23],-69%
same,growth at 100 µM,[24],-85%
same,growth at 100 µM,[25],-22%
CNC(=O)c1cc(Oc2ccc3nc(NC(=O)c4cc(C(F)(F)F)cc(C(F)(F)F)c4)sc3c2)ccn1,"activity at 5 min, 10 µM",CYP2D6,82.2%
same,GI50,[1],2520 nM
same,TGI,[1],7.98 µM
same,CC50,[1],73.7 µM
same,growth at 0.1 µM,[2],97%
same,growth at 0.1 µM,K562,98%
same,growth at 0.1 µM,[3],91%
same,growth at 0.1 µM,[4],98%
same,growth at 0.1 µM,[5],102%
same,growth at 0.1 µM,SN12C [6],101%
same,GI50,[7],3760 nM
same,LC50 (50% lethal concentration),[7],> 100 µM
same,TGI,[7],22.8 µM
same,GI50,[8],2.49 µM
same,TGI,[8],5.11 µM
same,CC50,[8],> 100 µM
same,GI50,MDA-MB-231,2880 nM
same,TGI,MDA-MB-231,6.63 µM
same,CC50,MDA-MB-231,39.8 µM
same,"activity at 5 min, 10 µM",CYP3A4,72.9%
same,growth at 0.01 µM,A549 [10],92%
same,growth at 0.01 µM,NCI-H226,99%
same,growth at 0.01 µM,[11],93%
same,growth at 0.01 µM,[12],93%
same,growth at 1 µM,NCI-H460,101%
same,growth at 1 µM,[13],105%
same,growth at 1 µM,[14],87%
same,growth at 100 µM,A549 [15],-67%
same,growth at 100 µM,NCI-H522,-61%
same,growth at 100 µM,[16],-88%
same,growth at 100 µM,HT-29,-51%
same,growth at 100 µM,[17],-10%
same,growth at 0.01 µM,MDA-MB-435,101%
same,growth at 0.01 µM,SK-MEL-2,88%
same,growth at 0.01 µM,[18],106%
same,growth at 0.01 µM,[19],105%
same,growth at 1 µM,SN12C [20],96%
same,growth at 1 µM,[21],94%
same,growth at 100 µM,[22],-35%
same,growth at 100 µM,[23],-56%
same,growth at 100 µM,[24],-78%
same,growth at 100 µM,[25],-42%
